Assays:
Assay in all cases: relative viability (nuclei count vs DMSO), 5 days (fraction); higher = more cells survive
NVP-TAE684 + Lapatinib = compound: COc1cc(N2CCC(N3CCN(C)CC3)CC2)ccc1Nc1ncc(Cl)c(Nc2ccccc2S(=O)(=O)C(C)C)n1 [NVP-TAE684] + CS(=O)(=O)CCNCc1ccc(-c2ccc3ncnc(Nc4ccc(OCc5cccc(F)c5)c(Cl)c4)c3c2)o1 [Lapatinib] (partner 2 µM)
How it was run: (§1)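 Dosing by pin tool came one day after lung cancer cell lines were seeded in 1536-well plates, using either one drug or a fixed anchor-drug dose plus five library-drug doses (not always all listed) in √10 steps. After 5 days, nuclei were counted on 4× images. Relative viability is treated-well nuclei count divided by vehicle-well nuclei count, and values are medians of duplicate plates.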

Vandetanib + Vorinostat = compound: COc1cc2/c(=N/c3ccc(Br)cc3F)nc[nH]c2cc1OCC1CCN(C)CC1 [Vandetanib] + O=C(CCCCCCC(=O)Nc1ccccc1)NO [Vorinostat] (partner 1 µM)
How it was run: as §1

CUDC-101 + Dasatinib = compound: C#Cc1cccc(Nc2ncnc3cc(OC)c(OCCCCCCC(=O)NO)cc23)c1 [CUDC-101] + Cc1nc(Nc2ncc(C(=O)Nc3c(C)cccc3Cl)s2)cc(N2CCN(CCO)CC2)n1 [Dasatinib] (partner 0.075 µM)
How it was run: as §1

CUDC-101 + Palbociclib = compound: C#Cc1cccc(Nc2ncnc3cc(OC)c(OCCCCCCC(=O)NO)cc23)c1 [CUDC-101] + CC(=O)c1c(C)c2cnc(Nc3ccc(N4CCNCC4)cn3)nc2n(C2CCCC2)c1=O [Palbociclib] (partner 0.5 µM)
How it was run: as §1

Row | Cell Line | relative viability (NVP-TAE684 + Lapatinib; first compound 0.2 µM) | relative viability (NVP-TAE684 + Lapatinib; first compound 0.6325 µM) | relative viability (NVP-TAE684 + Lapatinib; first compound 2 µM) | relative viability (Vandetanib + Vorinostat; first compound 0.02 µM) | relative viability (Vandetanib + Vorinostat; first compound 0.06325 µM) | relative viability (Vandetanib + Vorinostat; first compound 0.2 µM) | relative viability (Vandetanib + Vorinostat; first compound 0.6325 µM) | relative viability (Vandetanib + Vorinostat; first compound 2 µM) | relative viability (CUDC-101 + Dasatinib; first compound 0.01 µM) | relative viability (CUDC-101 + Dasatinib; first compound 0.03162 µM) | relative viability (CUDC-101 + Dasatinib; first compound 0.1 µM) | relative viability (CUDC-101 + Dasatinib; first compound 0.3162 µM) | relative viability (CUDC-101 + Dasatinib; first compound 1 µM) | relative viability (CUDC-101 + Palbociclib; first compound 0.01 µM) | relative viability (CUDC-101 + Palbociclib; first compound 0.03162 µM) | relative viability (CUDC-101 + Palbociclib; first compound 0.1 µM) | relative viability (CUDC-101 + Palbociclib; first compound 0.3162 µM) | relative viability (CUDC-101 + Palbociclib; first compound 1 µM)
1 | LK-2 | 1.01 | 0.721 | 0.69 | 0.31 | 0.311 | 0.341 | 0.265 | 0.365 | 0.298 | 0.389 | 0.25 | 0.284 | 0.157 | 0.824 | 0.662 | 0.574 | 0.593 | 0.194
2 | LOU-NH91 | 0.781 | 0.648 | 0.516 | 0.942 | 0.806 | 0.559 | 0.883 | 0.886 | 0.596 | 0.509 | 0.469 | 0.486 | 0.38 | 0.574 | 0.445 | 0.529 | 0.581 | 0.515
3 | LU99A |  | 0.974 | 0.543 | 0.474 | 0.377 | 0.499 | 0.49 | 0.528 | 0.596 | 0.508 | 0.507 | 0.64 | 0.432 | 0.332 | 0.391 | 0.374 | 0.425 | 0.212
4 | LXF-289 | 0.946 |  | 0.861 | 0.806 | 0.766 | 0.768 | 0.848 | 0.708 | 0.248 | 0.203 | 0.245 | 0.394 | 0.182 | 0.6 | 0.604 | 0.571 | 0.589 | 0.515
5 | NCI-H23 | 1.15 | 1.05 | 0.512 | 0.55 | 0.585 | 0.517 | 0.608 | 0.598 | 0.777 | 0.795 | 0.826 | 0.856 | 0.733 | 0.463 | 0.562 | 0.563 | 0.535 | 0.446
6 | NCI-H322M | 0.637 | 0.609 | 0.404 | 0.867 | 0.853 | 0.874 | 0.761 | 0.583 | 0.28 | 0.243 | 0.224 | 0.236 | 0.276 | 0.515 | 0.47 | 0.465 | 0.497 | 0.436
7 | NCI-H358 | 0.397 | 0.328 | 0.256 | 0.61 | 0.594 | 0.668 | 0.68 | 0.257 | 0.157 | 0.164 | 0.166 | 0.16 | 0.131 | 0.148 | 0.152 | 0.141 | 0.137 | 0.119
8 | NCI-H460 | 0.903 | 1.29 | 0.441 | 0.632 | 0.674 | 0.685 | 0.654 | 0.674 | 0.555 | 0.506 | 0.524 | 0.602 | 0.44 | 0.277 | 0.223 | 0.135 | 0.149 | 0.0952
9 | NCI-H520 | 0.761 | 0.884 | 0.454 | 0.7 | 0.706 | 0.739 | 0.677 | 0.639 | 0.196 | 0.166 | 0.192 | 0.259 | 0.218 | 0.227 | 0.199 | 0.277 | 0.32 | 0.225
10 | NCI-H647 | 1.34 | 1.02 | 0.686 | 0.514 | 0.569 | 0.684 | 0.715 | 0.432 | 0.255 | 0.198 | 0.23 | 0.224 | 0.136 | 0.417 | 0.345 | 0.383 | 0.386 | 0.253
11 | NCI-H650 |  | 0.776 | 0.706 | 0.585 | 0.533 | 0.514 | 0.544 | 0.341 | 0.486 | 0.482 | 0.495 | 0.436 | 0.337 | 0.402 | 0.365 | 0.302 | 0.374 | 0.29
12 | NCI-H661 | 0.518 | 0.51 | 0.493 | 0.736 | 0.798 | 0.783 | 0.867 | 0.915 | 0.926 | 0.926 | 0.862 | 0.815 | 0.386 | 0.382 | 0.381 | 0.388 | 0.416 | 0.287
13 | NCI-H727 | 0.917 | 0.695 | 0.346 | 1.11 | 1.18 | 1.13 | 1.26 | 0.992 | 0.298 | 0.422 | 0.359 | 0.375 | 0.311 | 0.642 | 0.61 | 0.563 | 0.714 | 0.57
14 | NCI-H838 | 1.12 | 0.758 | 0.287 | 0.731 | 0.679 | 0.772 | 0.78 | 0.68 | 0.338 |  | 0.308 | 0.335 | 0.358 | 0.213 | 0.221 | 0.233 | 0.26 | 0.214
15 | NCI-H1355 | 1.18 | 0.855 | 0.636 | 0.603 | 0.565 | 0.671 | 0.624 | 0.649 | 0.747 | 0.672 | 0.717 | 0.741 | 0.523 | 0.392 | 0.429 | 0.399 | 0.376 | 0.37
16 | NCI-H1395 | 1.29 | 0.921 | 0.859 | 0.622 | 0.881 | 0.495 | 0.63 | 0.596 | 0.418 | 0.385 | 0.438 | 0.434 | 0.363 | 0.599 | 0.632 | 0.595 | 0.725 | 0.578
17 | NCI-H1437 | 0.874 | 0.729 | 0.418 | 0.824 | 0.819 | 0.866 | 0.937 | 0.995 | 0.384 | 0.364 | 0.457 | 0.432 | 0.402 | 0.287 | 0.327 | 0.302 | 0.342 | 0.302
18 | NCI-H1650 | 0.958 | 0.684 | 0.347 | 0.525 | 0.502 | 0.599 | 0.544 | 0.452 | 0.302 | 0.292 | 0.321 | 0.324 | 0.221 | 0.37 | 0.23 | 0.294 | 0.308 | 0.19
